Test results published in patent publication US5707798A, “Identification of ligands by selective amplification of cells transfected with receptors” (priority 1994, dated 1998).
Where two headings read alike, the source gives them in different places. Ends that are not written are not given here.

Experiments:
[1] = system: NIH 3T3 cells; experiment: Amplification response in the absence of the indicated target receptor; assay type: cell-based, mouse; details: absence of the ligand's target receptor
Protocol: FIG. 16 illustrates the maximal ligand-induced responses of the indicated receptors, as assayed using cotransfected cultures using a Multiple Receptor Format similar to that described in FIG. 11. […] Cells were incubated in wells of a 96 well plate for 4 days with each ligand. Maximal responses were calculated by fitting the data to a model of a single mass-action site.

[2] = molecular target: T1, m1 muscarinic receptor (Homo sapiens, UniProt P11229); experiment: cell-based
T1 sequence (P11229 1-460): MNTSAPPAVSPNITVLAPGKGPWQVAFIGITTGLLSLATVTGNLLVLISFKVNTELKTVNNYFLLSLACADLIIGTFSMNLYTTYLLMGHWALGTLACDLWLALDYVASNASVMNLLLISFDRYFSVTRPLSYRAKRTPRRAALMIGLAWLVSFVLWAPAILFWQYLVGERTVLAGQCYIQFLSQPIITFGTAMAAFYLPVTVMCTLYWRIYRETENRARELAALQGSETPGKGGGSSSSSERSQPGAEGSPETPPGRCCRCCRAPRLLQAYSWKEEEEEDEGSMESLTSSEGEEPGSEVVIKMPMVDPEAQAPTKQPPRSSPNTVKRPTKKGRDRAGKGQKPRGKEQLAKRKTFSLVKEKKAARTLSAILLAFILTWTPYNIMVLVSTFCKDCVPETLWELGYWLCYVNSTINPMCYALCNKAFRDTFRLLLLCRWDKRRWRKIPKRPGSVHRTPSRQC

[3] = molecular target: T2, m5 muscarinic receptor (Homo sapiens, UniProt P08912); assay type: cell-based; details: read-out: negative log Ki (converted)
T2 construct: expressed in transfected cells; host or cells: NIH 3T3 (mouse fibroblasts)
T2 sequence (P08912 1-532): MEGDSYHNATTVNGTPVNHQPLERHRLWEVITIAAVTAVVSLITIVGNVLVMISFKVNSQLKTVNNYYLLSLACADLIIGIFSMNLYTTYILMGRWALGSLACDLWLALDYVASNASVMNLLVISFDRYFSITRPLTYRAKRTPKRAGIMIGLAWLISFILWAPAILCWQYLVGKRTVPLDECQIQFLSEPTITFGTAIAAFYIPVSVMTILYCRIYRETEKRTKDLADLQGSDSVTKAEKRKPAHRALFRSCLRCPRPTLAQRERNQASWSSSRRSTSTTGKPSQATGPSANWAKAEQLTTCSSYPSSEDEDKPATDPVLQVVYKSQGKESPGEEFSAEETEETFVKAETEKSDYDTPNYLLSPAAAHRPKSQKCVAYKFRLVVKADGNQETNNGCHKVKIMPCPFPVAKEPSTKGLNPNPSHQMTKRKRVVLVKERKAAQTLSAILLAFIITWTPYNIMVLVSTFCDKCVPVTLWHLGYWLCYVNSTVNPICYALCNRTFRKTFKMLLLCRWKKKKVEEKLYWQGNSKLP

[4] = molecular target: T3, alpha 2 C4 adrenergic receptor (Homo sapiens, UniProt P18825); assay type: cell-based; details: α2-C4, Table 3; for Max Response: relative to other ligands at the receptor
T3 construct: expressed in transfected cells; host or cells: NIH 3T3 (mouse fibroblasts)
T3 sequence (P18825 1-462): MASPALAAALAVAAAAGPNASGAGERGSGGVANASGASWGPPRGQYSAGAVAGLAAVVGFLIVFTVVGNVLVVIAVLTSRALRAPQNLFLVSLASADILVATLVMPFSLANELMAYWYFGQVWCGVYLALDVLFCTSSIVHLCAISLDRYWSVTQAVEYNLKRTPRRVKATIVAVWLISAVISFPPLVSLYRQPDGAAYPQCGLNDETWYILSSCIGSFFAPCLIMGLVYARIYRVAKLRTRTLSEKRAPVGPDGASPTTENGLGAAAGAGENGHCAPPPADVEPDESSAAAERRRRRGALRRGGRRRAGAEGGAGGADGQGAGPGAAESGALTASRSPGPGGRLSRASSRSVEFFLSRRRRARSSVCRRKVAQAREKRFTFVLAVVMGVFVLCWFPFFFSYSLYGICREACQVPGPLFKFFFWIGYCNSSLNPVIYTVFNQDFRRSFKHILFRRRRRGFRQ

[5] = molecular target: T4, alpha 2 C10 adrenergic receptor (Homo sapiens, UniProt P08913); assay type: cell-based; details: α2-C10, Table 3
T4 construct: expressed in transfected cells; host or cells: NIH 3T3 (mouse fibroblasts)
T4 sequence (P08913 1-465): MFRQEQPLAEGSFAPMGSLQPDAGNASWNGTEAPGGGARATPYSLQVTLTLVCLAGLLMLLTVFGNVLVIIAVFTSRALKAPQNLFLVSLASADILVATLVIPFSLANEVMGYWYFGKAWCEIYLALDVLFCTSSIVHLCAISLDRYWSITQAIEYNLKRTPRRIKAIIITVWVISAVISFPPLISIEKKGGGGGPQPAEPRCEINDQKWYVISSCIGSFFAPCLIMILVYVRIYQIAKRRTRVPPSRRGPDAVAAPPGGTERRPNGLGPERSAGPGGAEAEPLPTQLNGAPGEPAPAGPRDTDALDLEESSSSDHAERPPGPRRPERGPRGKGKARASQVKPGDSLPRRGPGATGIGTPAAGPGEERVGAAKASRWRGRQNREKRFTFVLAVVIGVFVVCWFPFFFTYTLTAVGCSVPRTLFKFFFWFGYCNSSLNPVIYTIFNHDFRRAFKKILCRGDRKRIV

[6] = molecular target: T5, alpha 2 C2 adrenergic receptor (Homo sapiens, UniProt P18089); assay type: cell-based
T5 sequence (P18089 1-450): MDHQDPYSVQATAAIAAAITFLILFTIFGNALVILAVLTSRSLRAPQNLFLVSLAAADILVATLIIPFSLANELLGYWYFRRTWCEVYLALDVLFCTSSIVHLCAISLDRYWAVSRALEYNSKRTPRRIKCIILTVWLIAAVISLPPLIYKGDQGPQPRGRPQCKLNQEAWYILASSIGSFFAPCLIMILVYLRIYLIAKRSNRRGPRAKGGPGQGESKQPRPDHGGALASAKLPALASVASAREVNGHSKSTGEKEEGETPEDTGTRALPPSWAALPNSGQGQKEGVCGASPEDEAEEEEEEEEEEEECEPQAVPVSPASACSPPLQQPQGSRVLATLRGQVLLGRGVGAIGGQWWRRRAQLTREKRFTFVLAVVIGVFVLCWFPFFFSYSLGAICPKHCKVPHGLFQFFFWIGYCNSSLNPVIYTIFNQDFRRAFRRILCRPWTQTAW

[7] = molecular target: T1, m1 muscarinic receptor; experiment: cell-based; assay type: cell-based; set-up: expressed in transfected cells; host or cells: NIH 3T3 (mouse fibroblasts); details: for Emax: read-out: % Max
[8] = molecular target: T6, m2 muscarinic receptor (Homo sapiens, UniProt P08172); experiment: cell-based; assay type: cell-based
T6 construct: expressed in transfected cells; host or cells: NIH 3T3 (mouse fibroblasts)
T6 sequence (P08172 1-466): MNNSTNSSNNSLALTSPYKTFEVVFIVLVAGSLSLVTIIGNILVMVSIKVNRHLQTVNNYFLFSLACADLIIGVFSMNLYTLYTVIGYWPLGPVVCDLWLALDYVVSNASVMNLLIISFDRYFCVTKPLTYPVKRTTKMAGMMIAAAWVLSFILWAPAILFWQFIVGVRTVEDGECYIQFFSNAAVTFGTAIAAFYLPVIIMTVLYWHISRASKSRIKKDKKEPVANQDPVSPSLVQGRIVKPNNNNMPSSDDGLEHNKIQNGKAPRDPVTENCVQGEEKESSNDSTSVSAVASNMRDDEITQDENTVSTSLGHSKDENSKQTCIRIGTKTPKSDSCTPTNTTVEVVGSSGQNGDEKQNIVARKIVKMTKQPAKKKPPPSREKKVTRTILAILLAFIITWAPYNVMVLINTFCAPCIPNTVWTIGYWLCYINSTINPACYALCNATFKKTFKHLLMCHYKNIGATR

[9] = system: Glutamate metabatropic receptor; assay type: cell-based
[10] = molecular target: T7, m4 muscarinic receptor (Homo sapiens, UniProt P08173); experiment: cell-based
T7 sequence (P08173 1-479): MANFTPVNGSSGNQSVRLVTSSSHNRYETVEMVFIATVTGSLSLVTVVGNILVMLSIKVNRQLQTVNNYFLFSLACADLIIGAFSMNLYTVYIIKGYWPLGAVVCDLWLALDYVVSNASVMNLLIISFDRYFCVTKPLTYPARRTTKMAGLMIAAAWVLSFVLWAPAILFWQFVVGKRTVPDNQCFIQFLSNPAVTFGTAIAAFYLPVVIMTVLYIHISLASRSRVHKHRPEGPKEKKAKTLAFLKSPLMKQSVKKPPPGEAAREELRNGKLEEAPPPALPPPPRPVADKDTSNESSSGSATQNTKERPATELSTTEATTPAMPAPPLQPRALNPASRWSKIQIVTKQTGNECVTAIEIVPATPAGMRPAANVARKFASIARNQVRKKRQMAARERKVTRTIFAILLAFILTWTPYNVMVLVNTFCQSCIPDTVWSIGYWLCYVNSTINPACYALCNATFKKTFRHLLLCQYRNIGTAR

[11] = molecular target: T8, m3 muscarinic receptor (Homo sapiens, UniProt P20309); experiment: cell-based
[12] = molecular target: T2, m5 muscarinic receptor; assay type: cell-based; details: for Emax: read-out: % Max
[13] = molecular target: T8, m3 muscarinic receptor; experiment: cell-based; set-up: expressed in transfected cells; host or cells: NIH 3T3 (mouse fibroblasts); details: for Emax: read-out: % Max
[14] = molecular target: T7, m4 muscarinic receptor; experiment: cell-based; details: read-out: % Max
[15] = molecular target: T7, m4 muscarinic receptor
[16] = molecular target: Insulin receptor; assay type: cell-based
[17] = system: trk C receptor; details: data not shown
[18] = system: trk A receptors (NGF receptor); details: only when transfected with trk A; cited from earlier work

T8 sequence (P20309 whole entry): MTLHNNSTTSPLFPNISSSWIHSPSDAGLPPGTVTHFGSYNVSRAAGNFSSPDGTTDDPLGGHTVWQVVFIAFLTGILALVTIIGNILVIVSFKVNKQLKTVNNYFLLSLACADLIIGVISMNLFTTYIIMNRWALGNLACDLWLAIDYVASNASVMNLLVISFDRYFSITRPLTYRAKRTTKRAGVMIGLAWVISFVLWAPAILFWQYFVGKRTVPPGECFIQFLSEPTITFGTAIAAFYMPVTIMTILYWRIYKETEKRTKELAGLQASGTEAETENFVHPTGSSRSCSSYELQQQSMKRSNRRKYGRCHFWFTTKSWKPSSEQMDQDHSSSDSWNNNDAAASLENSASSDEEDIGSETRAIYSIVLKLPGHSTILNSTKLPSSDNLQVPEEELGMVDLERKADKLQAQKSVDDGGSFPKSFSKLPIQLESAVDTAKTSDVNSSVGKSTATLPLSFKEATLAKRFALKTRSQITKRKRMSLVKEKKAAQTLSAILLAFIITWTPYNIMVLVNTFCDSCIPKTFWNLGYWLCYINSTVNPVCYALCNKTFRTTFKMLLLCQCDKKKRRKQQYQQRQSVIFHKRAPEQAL

O=C(O)CCC/C=C\C[C@@H]1[C@@H](/C=C/[C@@H](O)COc2cccc(C(F)(F)F)c2)[C@H](O)C[C@@H]1O (racemic) [Fluprostenol]
induction of responses [1]: unable to induce responses

C[N+]1(C)CCC(OC(=O)C(c2ccccc2)c2ccccc2)CC1 [4-DAMP]
Ki [2]: 2.51 nM
Ki [3]: 1 nM

C=CCN1CCc2nc(N)sc2CC1 [BHT 920]
EC50 [4]: > 10000 nM
EC50 [5]: > 10000 nM

CCN1CCc2nc(N)oc2CC1 [BHT 933]
EC50 ([6]; α2-C2, Table 3): > 10000 nM
EC50 [5]: > 10000 nM

Cc1cccc([C@H](C)c2cnc[nH]2)c1C [Dexmedetomidine]
EC50 [6]: 2 nM

CNC[C@H](O)c1ccc(O)c(O)c1 [Epinephrine]
Max Response [4]: +

C[N+](C)(C)CC#CCOC(=O)Nc1cccc(Cl)c1 [McN A-434]
EC50 ([7]; m1, Table 1A, read-out: EC50): 1100 ± 200 nM
% Max ([7]; nih 3t3 cells): 43 ± 2%
EC50 ([8]; m2 + Gq-i5, Table 1A, read-out: EC50): 1500 ± 600 nM
% Max ([8]; nih 3t3 cells): 108 ± 7%

COc1nc(C)nc(Cl)c1N=C1NCCN1 [Moxonidine]
Max Response [4]: +

Cc1cc(C(C)(C)C)c(O)c(C)c1CC1=NCCN1 [Oxymetazoline]
Max Response [4]: +

N[C@@H](Cn1oc(=O)[nH]c1=O)C(=O)O [Quisqualate]
EC50 ([9]; Table 2, read-out: Ligand EC50): 2400 nM
Rmax ([9]; relative to other clones): +

C1COC(NC(C2CC2)C2CC2)=N1 [Rilmenidine]
Max Response [4]: +

Brc1c(NC2=NCCN2)ccc2nccnc12 [UK 14,304]
Max Response [4]: +

COc1ccccc1CNCCCCCCNCCCCCCCCNCCCCCCNCc1ccccc1OC [methocrtramine]
Ki [10]: 398 nM
Ki [2]: 501 nM
Ki [11]: > 1000 nM
Ki [3]: > 1000 nM

C[C@@H]1O[C@H](C[N+](C)(C)C)C[C@H]1O [muscarine]
Emax [12]: 86%
Emax [13]: 84 ± 6%
Emax [14]: 69 ± 2%
Emax [7]: 84 ± 4%

O=C1CCCN1CC#CCN1CCCC1 [oxotremorine]
EC50 ([12]; m5, Table 1A, read-out: EC50): 55 ± 1 nM
EC50 ([12]; m5, Table 2, read-out: Ligand EC50): 55 ± 1 nM
Emax [12]: 74 ± 2%
Emax [13]: 66 ± 5%
EC50 ([13]; read-out: EC50): 210 ± 60 nM
EC50 ([13]; read-out: Ligand EC50): 210 ± 60 nM
Emax [14]: 102 ± 3%
Emax [7]: 75 ± 10%
EC50 ([7]; read-out: EC50): 390 ± 130 nM
EC50 ([7]; read-out: Ligand EC50): 390 ± 130 nM
Emax ([8]; read-out: % Max): 100 ± 5%
EC50 ([8]; read-out: EC50): 19 ± 10 nM
EC50 ([8]; read-out: Ligand EC50): 19 ± 10 nM
EC50 [15]: 33 ± 14 nM
EC50 ([15]; read-out: Ligand EC50): 33 ± 14 nM

Clc1cc(I)cc(Cl)c1NC1=NCCN1 [p-I-Clonidine]
Max Response [6]: +

Nc1cc(Cl)c(NC2=NCCN2)c(Cl)c1 [p-NH2-Clonidine]
Max Response ([6]; α2-C2, Table 3, relative to other ligands at the receptor): +

CNC[C@H](O)c1cccc(O)c1 [phenylephrine]
induction of responses [1]: unable to induce responses

Insulin
EC50 ([16]; Table 2, read-out: Ligand EC50): 0.08 ± 0.08 nM
Rmax ([16]; relative to other clones): +

Nerve growth factor [NGF]
induction of amplification responses [17]: not able to induce amplification responses
growth stimulation [18]: stimulates growth

endothelin-3 [ET-3]
induction of responses [1]: unable to induce responses

substance P (RPKPQQFFGLM; ends and bridges not checked; UniProt P20366 58-68, looked up)
induction of responses [1]: unable to induce responses
